The values that follow come from publication PMC8760490, “Discovery of novel furanylbenzamide inhibitors that target oncogenic tyrosine phosphatase SHP2 in leukemia cells” (The Journal of Biological Chemistry, 2021).

Assay [1] addresses T1, STEP (280–566) catalytic domain (Homo sapiens, UniProt P54829).
T1 construct: the codon-optimized STEP (280–566) catalytic domains; His tag (pET-15b) (N); made in house; host or cells: E. coli BL21(DE3)
T1 sequence (P54829 280-565 limits assumed): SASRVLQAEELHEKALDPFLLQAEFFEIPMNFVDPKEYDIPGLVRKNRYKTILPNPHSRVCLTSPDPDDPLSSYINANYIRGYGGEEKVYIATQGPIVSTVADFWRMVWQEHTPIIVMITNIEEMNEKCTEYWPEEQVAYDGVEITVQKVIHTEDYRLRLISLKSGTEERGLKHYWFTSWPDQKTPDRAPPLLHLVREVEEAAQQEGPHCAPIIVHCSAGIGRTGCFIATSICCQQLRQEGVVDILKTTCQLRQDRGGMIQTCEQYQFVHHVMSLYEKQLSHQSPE
The assay is described as follows: DiFMUP phosphatase inhibition assay, STEP. It is filed as biochemical. The conditions noted are these: for IC50: catalytic domain, DiFMUP at Km (4 μM); for selectivity for SHP2 over STEP: from IC50 values against catalytic domains. The protocol: Selectivity is one of the biggest challenges in PTP inhibitor development. […] Similar to SHP2, we adapted a 384-well plate format DiFMUP assay for recombinant PTP1B and STEP and performed Michaelis–Menten experiments to determine DiFMUP Km values for each phosphatase. IC50 values of our inhibitors for PTP1B and STEP were determined in 10-point dose–response assays with DiFMUP used at the concentration corresponding to the respective Km value. […] Other inhibitors with good relative selectivity for SHP2 included SBI-4668 (13-fold selective over PTP1B; 73-fold selective over STEP) and SBI-3404 (fivefold selective over PTP1B; >71-fold selective over STEP).
Recombinant human full-length SHP2 (1–594) WT and E76K mutants, as well as the SHP2cat (248–527), were expressed and purified as described before ([36], [41]). Recombinant human PTP1B (1–300) and the codon-optimized STEP (280–566) catalytic domains were cloned into PET-15b and expressed as N-His-tagged fusion proteins. For expression, transformed BL21(DE3) cells were grown and induced similar as described for SHP2. Collected cells were resuspended in lysis buffer (25 mM Tris, pH 7.5, 300 mM NaCl, 50 mM imidazole, and 10% glycerol) with 100 mg/l RNaseA and were lysed with two passages using a microfluidizer. The lysate was clarified by centrifugation at 15,000g for 50 min and applied to nickel–nitrilotriacetic acid resin. The column resin was washed, and the PTP1B or STEP protein was eluted in lysis buffer at 300 mM imidazole. The PTP1B or STEP protein was further purified by S75 size-exclusion chromatography in 50 mM Tris, pH 7.5, 50 mM NaCl. The eluted peak fractions were supplemented with tris(2-carboxyethyl)phosphine to 10 mM, concentrated by ultrafiltration, and stored at −80 °C. The purified yield of PTP1B was 33 mg/l cell culture; the yield of STEP was 16 mg/l cell culture.
SHP2 inhibitors were tested at RT in a 384-well plate format standard phosphatase fluorescence intensity assay using DiFMUP (Invitrogen/Thermo Fisher Scientific) as a substrate and a total reaction volume of 25 μl. SHP2 inhibitors or vehicle (DMSO) were spotted in triplicate into a black Greiner FLUOTRAC 200 384-well microplate (catalog no.: 781076; Greiner) for a 10-point dose–response assay using an Echo 555 Liquid Handler (Labcyte, Inc). PTP working solutions were prepared at a 0.625 nM concentration (for a final concentration of 0.5 nM) in buffer containing 50 mM Bis–Tris, pH 6.0, 50 mM NaCl, 5 mM DTT, and 0.01% Tween-20. Prior to the assay, a dually phosphorylated IRS-1 peptide (625 nM [500 nM final] ([30])) was added to full-length WT SHP2 working solutions and incubated for 20 min. DiFMUP working solutions at 5× final concentration were prepared in 50 mM Bis–Tris, pH 6.0, 50 mM NaCl, and 0.01% Tween-20. About 20 μl of PTP working solution was dispensed into the microplate and incubated with inhibitor for 20 min at RT. […] The reaction was initiated by addition of 5 μl DiFMUP working solutions. Fluorescence intensity was measured in kinetic mode (every minute for 7 or 10 min) using a Tecan Spark Multimode Microplate Reader (Tecan) with an excitation wavelength of 360 nm and an emission wavelength of 460 nm. The initial rates were determined from the linear progression curves of the PTP reaction. The nonenzymatic hydrolysis of the substrate was corrected by using a control without addition of enzyme. IC50 values were calculated from the corrected initial rates by nonlinear regression using the program GraphPad Prism, version 8 (GraphPad Software, Inc) software. Dose–response inhibition assays of SHP2cat using the substrate OMFP were performed similarly as described previously for DiFMUP. OMFP was used at a concentration corresponding to its Km value for SHP2cat (50 μM final). Fluorescence intensity was measured in kinetic mode (every minute for 10 min) using a Tecan Spark Multimode Microplate Reader with an excitation wavelength of 485 nm and an emission wavelength of 535 nm. […]

Assay [2] has as its system Kasumi-1 acute myeloid leukemia (AML) cells. The experiment in a line: Cell viability (CellTiter-Glo), Kasumi-1. The conditions noted are these: for effect on Kasumi-1 cell growth: various concentrations, 3 days. It is filed as cell-based. The protocol: Inhibition of SHP2 has been reported to inhibit the growth of cancer cells including Kasumi-1 acute myeloid leukemia (AML) and KYSE-520 esophageal cancer cells ([30]). […] Thus, we treated two TNBC cell lines, BT-549 and MDA-MB-468, with SBI-4668 or the SHP2 allosteric inhibitor SHP099 at various concentrations and determined cell viability after 72 h, compared with the vehicle control (Fig. 4C). […] Next, we performed an 11-day colony formation assay with TNBC cells treated with SBI-4668 or SHP099 at 5, 10, or 20 μM (Fig. 4D).
Viability of AML and esophageal carcinoma cells was assessed using the ATP-depletion assay CellTiter-Glo (Promega). Cells were harvested at 1 × 10^6/ml to 2 × 10^6 cells/ml with cell numbers determined by trypan blue using the Countess Cell counter (Thermo Scientific) and resuspended in culture media. About 3000 cells (in 20 μl) were seeded in a 384-well format white and clear-bottom microplate (catalog no.: 781098; Greiner) spotted with test compound or vehicle control (DMSO) using an Echo 555 Liquid Handler. Cells were incubated for 3 days, before 10 μl of CellTiter-Glo reagent mix was added to each well and incubated for 10 min at RT. Luminescence was read on a Tecan Spark Multimode Microplate Reader, and data were analyzed using GraphPad Prism software.
On the technique in general: Cellular ATP, detected with luciferase, serves as a proxy for viable cell number.

In the case of `Nc1ccc(NC(=O)c2cc(-c3ccc(/C=C4\Sc5ccccc5C4=O)o3)ccc2O)cc1` [SBI-2130, (Z)-N-(4-Aminophenyl)-2-hydroxy-5-(5-((3-oxobenzo[b]thiophen-2(3H)-ylidene)methyl)furan-2-yl)benzamide], in assay [1], the half-maximal inhibitory concentration (IC50) – broadly, the point on the concentration scale where inhibition reaches its midpoint – worked out at 44 µM and the “selectivity for SHP2 over STEP” value came to 200 fold. Moreover, the “effect on Kasumi-1 cell growth” value in assay [2] is listed as “dose-dependently inhibited cancer cell growth”.

For the molecule `O=C1CCCC1=Cc1ccc(-c2ccc(O)c(C(=O)Nc3ccccc3)c2)o1` [SBI-3192, 2-Hydroxy-5-(5-((2-oxocyclopentylidene)methyl)furan-2-yl)-N-phenylbenzamide], it took 27 µM to reach half-maximal inhibition in assay [1] (IC50). That is a double-digit micromolar value.

Turning to `N#Cc1cc(-c2ccc(/C=C3\Sc4ccccc4C3=O)o2)ccc1O` [SBI-3404, (Z)-2-Hydroxy-5-(5-((3-oxobenzo[b]thiophen-2(3H)-ylidene)methyl)furan-2-yl)benzonitrile], the “selectivity for SHP2 over STEP” value in assay [1] is more than 71 fold. Moreover, the “effect on Kasumi-1 cell growth” value in assay [2] is recorded as “dose-dependently inhibited cancer cell growth”.

In the case of `O=C1/C(=C/c2ccc(-c3ccc(O)c(-c4nn[nH]n4)c3)o2)Sc2ccccc21` [SBI-3405, (Z)-2-((5-(4-Hydroxy-3-(2H-tetrazol-5-yl)phenyl)furan-2-yl)methylene)benzo[b]thiophen-3(2H)-one], in assay [1], the IC50 is 7.7 µM.

`O=C(Nc1ccccc1)c1cc(-c2ccc(/C=C3\Sc4ccccc4C3=O)o2)ccc1O` [SBI-4668, (Z)-2-Hydroxy-5-(5-((3-oxobenzo[b]thiophen-2(3H)-ylidene)methyl)furan-2-yl)-N-phenylbenzamide]: in assay [1], it took 53 µM to reach half-maximal inhibition (IC50) and the “selectivity for SHP2 over STEP” value stood at 73 fold. This molecule yielded an IC50 in assay [2] (Homo sapiens, Kasumi 1, 72 h, 3 days in culture) of 8.5 µM. For the same molecule, the “effect on Kasumi-1 cell growth” value in assay [2] was “dose-dependently inhibited cancer cell growth”.
